Experimental data as given in ChEMBL document CHEMBL4330072, “Neuroprotective effects of a novel carnosine-hydrazide derivative on hippocampal CA1 damage after transient cerebral ischemia” (Eur J Med Chem, 2019).
Active and inactive are the calls of the source. The rule behind the calls is not given here.

Assays:
[1] = Quenching activity of compound in pH 7.4 PBS assessed as 4-HNE consumption at 2 mmol/L after 30 mins by HPLC analysis relative to control; format: functional
[2] = Quenching activity of compound in pH 7.4 PBS assessed as 4-HNE consumption at 2 mmol/L after 1 hr by HPLC analysis; format: functional
Meriones unguiculatus [3] = assay: (§1) Neuroprotective activity against BCCO-induced transient cerebral ischemia in mongolian gerbil hippocampal CA1 region assessed as increase in viable neurons at 100 mg/kg, ip administered immediately after BCCO treatment and measured after 7 days by hematoxylin and eosin staining-based light microscopic analysis; format: functional, organism-based
Meriones unguiculatus [4] = assay: as §1, with “analysis relative to control” for “analysis”; format: functional
PC-12 [5] = assay: Cytotoxicity against rat PC12 cells at 1 to 50 mM after 30 mins by MTT assay; format: cell-based; details: pc-12, 0.5 h, 50000 µM
PC-12 [6] = assay: Neuroprotective activity against 4-HNE-induced toxicity in rat PC12 cells preincubated for 30 mins followed by compound wash and 4-HNE addition measured after 24 hrs by MTT assay; format: functional, cell-based
PC-12 [7] = assay: Neuroprotective activity against 4-HNE-induced toxicity in rat PC12 cells at 30 mM preincubated for 30 mins followed by compound wash and 4-HNE addition measured after 24 hrs by MTT assay relative to control; format: functional
Meriones unguiculatus [8] = assay: as §1, with “20” for “100”, “20 mins prior to” for “immediately after”, “analysis relative to control” for “analysis”; format: functional
Meriones unguiculatus [9] = assay: Neuroprotective activity against BCCO-induced transient cerebral ischemia in mongolian gerbil hippocampal CA1 region assessed as increase in Hsp70 activity at 20 mg/kg, ip administered 20 mins prior to BCCO treatment measured after 24 hrs by immunostaining analysis; format: functional, organism-based

SMILES | Activity [1] [%] | Activity [2] | also measured
NCCC(=O)N[C@@H](Cc1c[nH]cn1)C(=O)O | 20 | Active | 
NNC(=O)[C@@H](N)Cc1c[nH]cn1 | 70 | Active | Activity (Meriones unguiculatus [3]): inactive
CC(=O)NNC(=O)[C@H](Cc1c[nH]cn1)NC(=O)CCN |  | Active | 
CC(=O)NCCC(=O)N[C@@H](Cc1c[nH]cn1)C(=O)NNC(C)=O |  | Active | 
CC(=O)NCCC(=O)N[C@@H](Cc1c[nH]cn1)C(=O)NN |  | Active | 
NCCC(=O)N[C@@H](Cc1c[nH]cn1)C(=O)NN | 90 | Active | Activity (Meriones unguiculatus [4]): 40%; Activity (PC-12 [5]): Non-Toxic; Activity (PC-12 [6]): Dose-dependent effect; Activity (PC-12 [7]): 100%; Activity (Meriones unguiculatus [8]): >60%; Activity (Meriones unguiculatus [9]): Active
